From US5128447A, “Synthetic peptide antagonists of neurokinin A, salts thereof and respective preparation processes” (A. Menarini Industrie Farmaceutiche Riunite S.r.l., priority 1989, dated 1992)
Non-standard residues stand in square brackets, D forms with d. Residues, ends and D or L forms follow the SMILES beside them.

Target: T1, neurokinin A receptor (NK-2 receptor) (Rattus norvegicus, UniProt P16610)
T1 sequence (P16610 1-390): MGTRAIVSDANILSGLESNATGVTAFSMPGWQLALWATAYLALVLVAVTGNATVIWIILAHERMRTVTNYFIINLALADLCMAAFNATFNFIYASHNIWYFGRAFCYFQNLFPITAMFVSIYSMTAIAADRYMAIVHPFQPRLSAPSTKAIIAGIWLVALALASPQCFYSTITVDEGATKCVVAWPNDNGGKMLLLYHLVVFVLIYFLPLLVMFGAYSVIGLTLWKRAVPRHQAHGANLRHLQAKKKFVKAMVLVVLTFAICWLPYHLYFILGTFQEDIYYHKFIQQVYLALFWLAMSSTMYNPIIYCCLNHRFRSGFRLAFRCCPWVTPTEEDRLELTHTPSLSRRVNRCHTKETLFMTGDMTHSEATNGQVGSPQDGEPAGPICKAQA
Assay: cell-based
Method: The capacity of the peptides described in the present invention of interacting with the neurokinin A receptor as agonists or antagonists was evaluated by means of an in vitro assay using a preparation, in which the biological response produced by tachykinin and related peptides is exclusively determined by the neuro-kinin A receptor (NK-2 receptor). Such a preparation is the isolated vas deferens of rats, where the tachykinins produce a potentiation of the contractions caused by the intramural nerves following an electrical stimulation. The determination of the activity of the peptides in this preparation was carried out as described by Rovero et al. (Neuropeptides 10, 355, 1987). The agonistic activity of the peptides assayed is expressed as pD2, which represents the […] of the molar concentration of agonist which produces 50% of the maximum effect. […] The pD2 were calculated according to Van Rossum (Arch. Int. Pharmacodyn. 143, 249, 1963), and the pA 2 were calculated from the analysis of the Schild plot (O. Arunlakshana and H. O. Schild, Br. J. Pharmacol., 14, 48, 1959).
The agonists produce a potentiation of the contractions caused by the nerve of the isolated vas deferens of rats. The antagonistic activity is evaluated as the capacity of the product to produce a parallel displacement towards the right of the concentration/response curve of neurokinin A after a contact time of 15 minutes.

Structure (SMILES) | Kb | EC50
CSCC[C@H](NC(=O)[C@@H](Cc1c[nH]c2ccccc12)NC(=O)[C@@H](Cc1c[nH]c2ccccc12)NC(=O)[C@@H](NC(=O)[C@@H](Cc1c[nH]c2ccccc12)NC(=O)[C@H](Cc1ccc(O)cc1)NC(=O)[C@H](CC(=O)O)NC(=O)[C@@H](N)CCCNC(=N)N)C(C)C)C(N)=O [H--Arg--Asp--Tyr--DTrp--Val--DTrp--DTrp--Met--NH2] (H-RDY[dW]V[dW][dW]M-NH2) | 251 nM | –
CC(C)[C@H](NC(=O)[C@@H](Cc1c[nH]c2ccccc12)NC(=O)[C@H](Cc1ccc(O)cc1)NC(=O)[C@H](CC(=O)O)NC(=O)[C@@H](N)CCCNC(=N)N)C(=O)N[C@H](Cc1c[nH]c2ccccc12)C(=O)N[C@H](Cc1c[nH]c2ccccc12)C(=O)N[C@@H](Cc1ccccc1)C(N)=O [H--Arg--Asp--Tyr--DTrp--Val--DTrp--DTrp--Phe--NH2] (H-RDY[dW]V[dW][dW]F-NH2) | 575 nM | –
CC(C)[C@H](NC(=O)[C@@H](Cc1c[nH]c2ccccc12)NC(=O)[C@H](Cc1ccc(O)cc1)NC(=O)[C@@H](N)CC(=O)O)C(=O)N[C@H](Cc1c[nH]c2ccccc12)C(=O)N[C@H](Cc1c[nH]c2ccccc12)C(=O)N[C@@H](CCCNC(=N)N)C(N)=O [H--Asp--Tyr--DTrp--Val--DTrp--DTrp--Arg--NH2] (H-DY[dW]V[dW][dW]R-NH2) | 251 nM | –
CC(C)[C@H](NC(=O)[C@@H](Cc1c[nH]c2ccccc12)NC(=O)[C@H](Cc1ccc(O)cc1)NC(=O)[C@@H](N)CC(=O)O)C(=O)N[C@H](Cc1c[nH]c2ccccc12)C(=O)N[C@H](Cc1c[nH]c2ccccc12)C(=O)N[C@@H](Cc1ccc(O)cc1)C(N)=O [H--Asp--Tyr--DTrp--Val--DTrp--DTrp--Tyr--NH2] (H-DY[dW]V[dW][dW]Y-NH2) | 191 nM | –
CC(C)[C@H](NC(=O)[C@@H](Cc1c[nH]c2ccccc12)NC(=O)[C@H](Cc1ccc(O)cc1)NC(=O)[C@H](CC(=O)O)NC(=O)[C@@H](N)CCCCN)C(=O)N[C@H](Cc1c[nH]c2ccccc12)C(=O)N[C@H](Cc1c[nH]c2ccccc12)C(=O)N[C@@H](CCCNC(=N)N)C(N)=O [H--Lys--Asp--Tyr--DTrp--Val--DTrp--DTrp--Arg--NH2] (H-KDY[dW]V[dW][dW]R-NH2) | 339 nM | –
CC(C)[C@H](NC(=O)[C@@H](Cc1c[nH]c2ccccc12)NC(=O)[C@H](Cc1ccc(O)cc1)NC(=O)[C@H](CC(=O)O)NC(=O)[C@@H](N)[C@@H](C)O)C(=O)N[C@H](Cc1c[nH]c2ccccc12)C(=O)N[C@H](Cc1c[nH]c2ccccc12)C(=O)N[C@@H](CCCNC(=N)N)C(N)=O [H--Thr--Asp--Tyr--DTrp--Val--DTrp--DTrp--Arg--NH2] (H-TDY[dW]V[dW][dW]R-NH2) | 251 nM | –
CC(C)[C@H](NC(=O)[C@@H](Cc1c[nH]c2ccccc12)NC(=O)[C@H](Cc1ccc(O)cc1)NC(=O)[C@H](CC(=O)O)NC(=O)[C@@H](N)CCCNC(=N)N)C(=O)N[C@H](Cc1c[nH]c2ccccc12)C(=O)N[C@H](Cc1c[nH]c2ccccc12)C(=O)N[C@@H](CCCNC(=N)N)C(N)=O [H-Arg-Asp-Tyr-DTrp-Val-DTrp-DTrp-Arg-NH2] (H-RDY[dW]V[dW][dW]R-NH2) | 316 nM | –
CC(C)[C@H](NC(=O)[C@@H](Cc1c[nH]c2ccccc12)NC(=O)[C@H](Cc1ccc(O)cc1)NC(=O)[C@@H](N)CC(=O)O)C(=O)N[C@H](Cc1c[nH]c2ccccc12)C(=O)N[C@H](Cc1c[nH]c2ccccc12)C(=O)N[C@H](Cc1c[nH]c2ccccc12)C(N)=O [H-Asp-Tyr-DTrp-Val-DTrp-DTrp-DTrp-NH2] (H-DY[dW]V[dW][dW][dW]-NH2) | 155 nM | –
CSCC[C@H](NC(=O)[C@H](CC(C)C)NC(=O)CNC(=O)[C@@H](NC(=O)[C@H](Cc1ccccc1)NC(=O)[C@H](CO)NC(=O)[C@@H](N)CC(=O)O)C(C)C)C(N)=O [NKA(4-10), reference compound] | – | 1050 nM
